Consider 18 compounds from ChEMBL document CHEMBL1287736, “Design of a novel class of biphenyl CETP inhibitors” (Bioorg Med Chem Lett, 2010).

Assay [1] relates to Mus musculus. Kind of assay: Cardioprotective activity in transgenic B6 mouse expressing cynomolgus monkey CETP assessed as increase in HDL-cholesterol level at 100 mg/kg, po BID measured after 24 hrs of first dose. It is filed as functional.
Assay [2] addresses T1, Cholesteryl ester transfer protein (Homo sapiens, UniProt P11597).
T1 sequence (P11597 whole entry): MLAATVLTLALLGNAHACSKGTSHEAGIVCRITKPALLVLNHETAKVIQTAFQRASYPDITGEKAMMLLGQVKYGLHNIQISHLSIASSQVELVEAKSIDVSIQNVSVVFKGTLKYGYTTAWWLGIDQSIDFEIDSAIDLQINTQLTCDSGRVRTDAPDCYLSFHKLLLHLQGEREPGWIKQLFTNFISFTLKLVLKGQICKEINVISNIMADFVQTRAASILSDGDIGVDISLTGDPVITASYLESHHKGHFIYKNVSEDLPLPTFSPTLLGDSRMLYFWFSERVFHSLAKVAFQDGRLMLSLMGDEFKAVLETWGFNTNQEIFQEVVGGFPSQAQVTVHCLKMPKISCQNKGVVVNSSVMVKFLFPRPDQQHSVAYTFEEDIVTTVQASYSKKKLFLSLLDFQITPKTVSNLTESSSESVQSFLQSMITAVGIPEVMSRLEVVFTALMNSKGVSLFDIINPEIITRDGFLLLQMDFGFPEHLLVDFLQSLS
Put plainly: Inhibition of CETP-mediated neutral lipid transfer by fluorometric analysis.

In assay [3] the test system is Mus musculus. Kind of assay: Cardioprotective activity in transgenic B6 mouse expressing cynomolgus monkey CETP assessed as increase in HDL-cholesterol level at 3 mg/kg, po BID measured after 24 hrs of first dose. It is filed as functional.
Assay [4] has as its system Mus musculus. Put plainly: Cardioprotective activity in transgenic B6 mouse expressing cynomolgus monkey CETP assessed as increase in HDL-cholesterol level at 10 mg/kg, po BID measured after 24 hrs of first dose. It is filed as functional.
For assay [5], the system named is Mus musculus. Kind of assay: Cardioprotective activity in transgenic B6 mouse expressing cynomolgus monkey CETP assessed as increase in HDL-cholesterol level at 1 mg/kg, po BID measured after 24 hrs of first dose. The class given is functional.
The subject of assay [6] is Mus musculus. Put plainly: Cardioprotective activity in transgenic B6 mouse expressing cynomolgus monkey CETP assessed as increase in HDL-cholesterol level at 30 mg/kg, po BID measured after 24 hrs of first dose. It is filed as functional.
Assay [7] concerns Mus musculus. Put plainly: Cardioprotective activity in po dosed transgenic B6 mouse expressing cynomolgus monkey CETP assessed as increase in HDL-cholesterol level administered BID measured after 24 hrs of first dose. It is filed as functional, organism-based.

As for `COC(=O)N(Cc1cc(C(F)(F)F)cc(C(F)(F)F)c1)Cc1cc(C(F)(F)F)ccc1-c1cc(C)ccc1OC`, the Activity in assay [1] is 40%. Moreover, it took 469 nM to reach half-maximal inhibition in assay [2] (IC50).
`CCOc1ccc(C)cc1-c1ccc(C(F)(F)F)cc1CN(Cc1cc(C(F)(F)F)cc(C(F)(F)F)c1)C(=O)OC`: in assay [2], the midpoint of inhibition, the IC50, lay at 4490 nM.
On the same count and under the same terms, then `COC(=O)N(Cc1cc(C(F)(F)F)cc(C(F)(F)F)c1)Cc1cc(C#N)ccc1-c1cc(C(C)C)ccc1OC`, with 224 nM; and `COC(=O)N(Cc1cc(C(F)(F)F)cc(C(F)(F)F)c1)Cc1cc(I)ccc1-c1cc(C(C)C)ccc1OC`, with 365 nM; and `COC(=O)N(Cc1cc(C(F)(F)F)cc(C(F)(F)F)c1)Cc1cc(C(F)(F)F)ccc1-c1cc(OC)ccc1OC`, with 444 nM.
The same measure, in the same setting: under `COC(=O)N(Cc1cc(C(F)(F)F)cc(C(F)(F)F)c1)Cc1cc(C(F)(F)F)ccc1-c1cc(C(C)(C)C)ccc1OC` stands 2590 nM; under `COC(=O)N(Cc1cc(C(F)(F)F)cc(C(F)(F)F)c1)Cc1cc(F)ccc1-c1cc(C(C)C)ccc1OC`, 1730 nM; under `COC(=O)N(Cc1cc(C(F)(F)F)cc(C(F)(F)F)c1)Cc1cc(N)ccc1-c1cc(C(C)C)ccc1OC`, 4660 nM.
In assay [2], `COC(=O)N(Cc1cc(C(F)(F)F)cc(C(F)(F)F)c1)Cc1cc(C(C)(C)C)ccc1-c1cc(C(C)C)ccc1OC` yielded an IC50 of 9510 nM.
On the same count and under the same terms, under `COC(=O)N(Cc1cc(C(F)(F)F)cc(C(F)(F)F)c1)Cc1cc(Cl)ccc1-c1cc(C(C)C)ccc1OC` stands 1430 nM.
For the compound `COC(=O)N(Cc1cc(C(F)(F)F)cc(C(F)(F)F)c1)Cc1ccccc1-c1cc(C(C)C)ccc1OC`, the 50% inhibitory concentration (IC50) in assay [2] was 3830 nM.
The same measure, in the same setting: under `COC(=O)N(Cc1cc(C(F)(F)F)cc(C(F)(F)F)c1)Cc1cc(C(F)(F)F)ccc1-c1cc(C(C)C)c(F)cc1OC` stands 117 nM.
`COC(=O)N(Cc1cc(C(F)(F)F)cc(C(F)(F)F)c1)Cc1cc(C(F)(F)F)ccc1-c1cc(C(C)C)ccc1OC`: the Activity is 43% in assay [3]; 54% in assay [4]; 37% in assay [5]; 86% in assay [6]; “Dose-dependent effect” in assay [7]. For the same compound, in assay [2], the IC50 is 108 nM.
Take `CCCc1ccc(OC)c(-c2ccc(C(F)(F)F)cc2CN(Cc2cc(C(F)(F)F)cc(C(F)(F)F)c2)C(=O)OC)c1`: in assay [2], the IC50 stood at 753 nM.
Same read-out and setting: then `COC(=O)N(Cc1cc(C(F)(F)F)cc(C(F)(F)F)c1)Cc1cc(OC)ccc1-c1cc(C(C)C)ccc1OC`, with 694 nM; and `COC(=O)N(Cc1cc(C(F)(F)F)cc(C(F)(F)F)c1)Cc1cc(C(F)(F)F)ccc1-c1ccccc1OC`, with 1600 nM; and `CCc1ccc(OC)c(-c2ccc(C(F)(F)F)cc2CN(Cc2cc(C(F)(F)F)cc(C(F)(F)F)c2)C(=O)OC)c1`, with 210 nM.
On the same count and under the same terms, then `COC(=O)N(Cc1cc(C(F)(F)F)cc(C(F)(F)F)c1)Cc1cc([N+](=O)[O-])ccc1-c1cc(C(C)C)ccc1OC`, with 134 nM.
